One test has as its system SiHa. As to the kind of experiment: Cell proliferation inhibition, SiHa in serine-replete or -deplete medium. It is filed as cell-based, human. To be noted: ratio of IC50 in serine-replete to serine-deplete medium.
The subject of a further test is HL-60 shCTRL. As to the kind of experiment: Cell proliferation inhibition, HL-60 shCTRL in serine-replete or -deplete medium. To be noted: ratio of IC50 in serine-replete to serine-deplete medium. It is filed as cell-based, human.
The target in test [1] is T1, PHGDH (Homo sapiens, UniProt O43175).
T1 sequence (O43175 1-533): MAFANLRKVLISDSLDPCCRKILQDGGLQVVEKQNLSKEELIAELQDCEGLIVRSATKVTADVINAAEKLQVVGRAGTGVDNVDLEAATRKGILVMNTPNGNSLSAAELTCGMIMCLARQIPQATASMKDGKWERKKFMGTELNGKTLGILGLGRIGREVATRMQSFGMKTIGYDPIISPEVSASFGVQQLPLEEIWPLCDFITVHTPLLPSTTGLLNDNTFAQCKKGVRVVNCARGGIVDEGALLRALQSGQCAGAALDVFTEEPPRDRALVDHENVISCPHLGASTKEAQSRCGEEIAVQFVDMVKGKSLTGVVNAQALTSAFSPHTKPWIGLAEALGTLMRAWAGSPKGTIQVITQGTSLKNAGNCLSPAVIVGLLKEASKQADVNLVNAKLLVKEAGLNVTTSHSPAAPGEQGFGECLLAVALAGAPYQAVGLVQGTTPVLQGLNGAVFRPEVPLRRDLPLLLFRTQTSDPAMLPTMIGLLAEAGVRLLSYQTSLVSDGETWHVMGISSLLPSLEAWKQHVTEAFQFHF
Kind of test: Ki measurement / competition assay by titrating 3-PG or NAD+. It is filed as biochemical.

Test [2] concerns the target T1, PHGDH. As to the kind of experiment: Rapid dilution. It is filed as biochemical. To be noted: 160 μM, 45 min at 37 °C, diluted 10-fold.
The target of test [3] is T1, PHGDH. To be noted: coupled-enzyme assay.

Bounds are passed on as bounds.

In the case of `O=C(Nc1ccccc1[N+](=O)[O-])c1ccc(Cl)cc1` [compound 12], the “SiHa IC50+Ser/IC50−Ser” value with SiHa is listed as over 1.7. Besides, the “HL-60 shCTRL IC50+Ser/IC50−Ser” value in the test with HL-60 shCTRL is over 1.2.

Regarding `O=C(C(=S)N1CCOCC1)c1ccccc1` [compound 19, 1-Phenyl-2-morpholino-2-thioxoethanone], the “HL-60 shCTRL IC50+Ser/IC50−Ser” value in the test on HL-60 shCTRL is over 5.5. The “mode of action with respect to both substrates (3-PG and NAD+)” value on PHGDH [1] is “noncompetitive”. Also, the “recovery of enzymatic activity after dilution” value at PHGDH [2] is “enzymatic activity is not recovered after dilution”.

With `O=C(C(=S)N1CCOCC1)c1ccccc1Cl` [compound 23, 1-(2-Chlorophenyl)-2-morpholino-2-thioxoethanone], at PHGDH [3], the “PHGDH inhibition (IC50, μM)” value is “no inhibition”.

For the compound `O=C(C(=S)N1CCOCC1)c1cccc(Cl)c1` [compound 24, 1-(3-Chlorophenyl)-2-morpholino-2-thioxoethanone], the “PHGDH inhibition (IC50, μM)” value at PHGDH [3] was “no inhibition”.
